# Reference: patent US11851430B1, “Pyrido[4,3-B]indole-7-carboxylic acid compounds as CK2 inhibitors” (KING FAISAL UNIVERSITY, priority 2023, dated 2023)
# Tests used:
# [1] = test system: HL60 (leukemia) cancer cells; assay: In vitro cytotoxic activity (MTT) assay, HL60; format: cell-based; conditions: Homo sapiens, HL-60, exposed for 96 hours, read-out: IC50, inhibition of cell proliferation, HL60 (leukemia)
# Description: (§1) Compounds 1-12 were screened for their in vitro cytotoxic activity utilizing a 3-(4,5-dimethyl-thiazol-2-yl)-2,5-diphenyltetrazolium bromide (MTT) assay against selected cancer human cell lines consisting of PC3 (prostate), HCT116 (colon), A375 (melanoma), H1299 (lung), MIAPaCa-2 (pancreas), HL60 (leukemia), MCF7 (breast), MDA-MB-231 (breast) (T. Mosmann, J. Immunol. Meth., 1983, 65, 55-63). The cells were cultured at 37° C. in RMPI1640 medium supplemented with 10% fetal bovine serum, 50 IU/mL penicillin, and 50 μg/mL streptomycin in a 5% CO2 incubator. All cells were sub-cultured 3 times/week by trypsinisation. Viable cells were seeded and allowed to adhere for 12 h before a test drug was added in 96-well plates at an initial density of 1.0×10^5 cells/mL. Tumour cell lines were separately exposed to various concentrations of the tested compounds followed by incubation at a temperature of 37° C. during 96 h inside a medium of fresh RMPI 1640. Cells were subsequently incubated at 37° C. using MTT at 0.5 mg/mL during 4 h. After removal of supernatant, formazan crystals were dissolved in isopropanol and the optical density was measured at 570 nm. CX-4945 was used as a positive control.
# [2] = test system: H1299 (lung) cancer cells; assay: In vitro cytotoxic activity (MTT) assay, H1299; format: cell-based; conditions: Homo sapiens, NCI-H1299, exposed for 96 hours, read-out: IC50, inhibition of cell proliferation, H1299 (lung)
# Description: as §1
# [3] = target: T1, recombinant human CK2 (RRββ-holoenzyme) (Homo sapiens, UniProt P68400); assay: CK2 kinase assay (radiometric, [γ-33P]ATP); format: biochemical; conditions: final ATP 15 μM, 10 min at 30° C., eight concentrations; read-out: IC50, protein kinase CK2 activity
# T1 construct: purchased Millipore
# Description: CK2 Kinase Assay was conducted using the protocol as described in Pierre F. et al; J. Med. Chem. 2011, 54, 635-654. The tested compounds in aqueous solution were added at a volume of 10 μL to a reaction mixture comprising 10 μL of assay dilution buffer (ADB; 20 mM MOPS, pH 7.2, 25 mM β-glycerol phosphate, 5 mM EGTA, 1 mM sodium orthovanadate, and 1 mM dithiothreitol), 10 μL of substrate peptide (RRRDDDSDDD, dissolved in ADB at a concentration of 1 mM), 10 μL of recombinant human CK2 (RRββ-holoenzyme, 25 ng dissolved in ADB; Millipore). Reactions were initiated by the addition of 10 μL of ATP solution (90% 75 mMMgCl2, 75 μM ATP (final ATP concentration:15 μM) dissolved in ADB; 10% [γ-33P] ATP (stock 1 mCi/100 μL; 3000 Ci/mmol (Perkin-Elmer) and maintained for 10 min at 30° C. The reactions were quenched with 100 μL of 0.75% phosphoric acid and then transferred to and filtered through a phosphor cellulose filter plate (Millipore). After washing each well five times with 0.75% phosphoric acid, the plate was dried under vacuum for 5 min and, following the addition of 15 μL of scintillation fluid to each well, the residual radioactivity was measured using a Wallac luminescence counter. The IC50 values were derived from eight concentrations of test inhibitors.
# [4] = test system: HCT116 (colon) cancer cells; assay: In vitro cytotoxic activity (MTT) assay, HCT116; format: cell-based; conditions: Homo sapiens, HCT-116, exposed for 96 hours, read-out: IC50, inhibition of cell proliferation, HCT116 (colon)
# Description: as §1
# [5] = test system: MDA-MB-231 (breast) cancer cells; assay: In vitro cytotoxic activity (MTT) assay, MDA-MB-231; format: cell-based; conditions: Homo sapiens; MDA-MB-231 cells, exposed for 96 hours; read-out: IC50, inhibition of cell proliferation, MDA-MB-231 (breast)
# Description: as §1
# [6] = test system: MIAPaCa-2 (pancreas) cancer cells; assay: In vitro cytotoxic activity (MTT) assay, MIAPaCa-2; format: cell-based; conditions: Homo sapiens, MIA PaCa-2; MIAPaCa-2 cells, exposed for 96 hours; read-out: IC50, inhibition of cell proliferation, MIAPaCa-2 (pancreas)
# Description: as §1
# [7] = test system: PC3 (prostate) cancer cells; assay: In vitro cytotoxic activity (MTT) assay, PC3; format: cell-based; conditions: Homo sapiens, PC-3, exposed for 96 hours, read-out: IC50, inhibition of cell proliferation, PC3 (prostate)
# Description: as §1
# [8] = test system: A375 (melanoma) cancer cells; assay: In vitro cytotoxic activity (MTT) assay, A375; format: cell-based; conditions: Homo sapiens, A-375, exposed for 96 hours, read-out: IC50, inhibition of cell proliferation, A375 (melanoma)
# Description: as §1
# [9] = test system: MCF7 (breast) cancer cells; assay: In vitro cytotoxic activity (MTT) assay, MCF7; format: cell-based; conditions: Homo sapiens, exposed for 96 hours, read-out: IC50, inhibition of cell proliferation, MCF7 (breast)
# Description: as §1
# T1 sequence (P68400 whole entry): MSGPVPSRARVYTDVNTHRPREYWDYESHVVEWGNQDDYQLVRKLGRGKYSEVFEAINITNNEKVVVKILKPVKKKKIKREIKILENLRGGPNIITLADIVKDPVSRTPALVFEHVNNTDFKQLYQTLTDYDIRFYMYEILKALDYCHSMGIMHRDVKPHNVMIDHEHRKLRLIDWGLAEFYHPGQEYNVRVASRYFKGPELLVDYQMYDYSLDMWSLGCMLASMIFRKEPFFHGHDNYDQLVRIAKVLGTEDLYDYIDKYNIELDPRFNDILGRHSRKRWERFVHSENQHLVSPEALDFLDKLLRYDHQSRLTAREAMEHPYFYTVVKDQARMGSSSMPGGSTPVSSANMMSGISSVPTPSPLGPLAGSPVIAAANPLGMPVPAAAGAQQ
# T1 sequence (P67870 whole entry partner): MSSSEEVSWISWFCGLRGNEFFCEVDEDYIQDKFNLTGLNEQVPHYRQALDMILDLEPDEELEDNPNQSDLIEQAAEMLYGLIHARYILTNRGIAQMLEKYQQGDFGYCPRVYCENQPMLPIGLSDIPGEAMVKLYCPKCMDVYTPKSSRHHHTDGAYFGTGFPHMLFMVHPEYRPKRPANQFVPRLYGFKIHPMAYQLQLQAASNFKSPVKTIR
smiles,measurement,setting,value
"O=C(O)c1ccc2c3cnccc3n(C(=O)c3cccc(Cl)c3)c2c1 [Compound (7), 5-(3-chlorobenzoyl)-5H-pyrido[4,3-b]indole-7-carboxylic acid]",IC50,[1],1700 nM
same,IC50,[2],1100 nM
same,IC50,[3],36 nM
same,IC50,[4],1600 nM
same,IC50,[5],3600 nM
same,IC50,[6],2300 nM
same,IC50,[7],900 nM
same,IC50,[8],4400 nM
same,IC50,[9],5200 nM
